We go through one compound from patent US8257915B2, “Farnesyltransferase inhibitors for treatment of laminopathies, cellular aging and atherosclerosis” (Progeria Research Foundation, Inc., priority 2002, dated 2012).

Data set [1] relates to human brain, lung, prostate, pancreas, colon, and bladder tumor xenografts. Conditions: nude mice; cited from earlier work.
The conditions of data set [2]: Phase III trials, including trials involving children; cited from earlier work.
For a further data set, the system named is protein farnesylation. Conditions: Phase I clinical trial; cited from earlier work.
Data set [3] relates to several human cancer cell lines. Conditions: cited from earlier work.
Data set [4] has as its system HGPS fibroblast lines AG06917, AG11513, AG11498. Briefly: Nuclear blebbing of HGPS skin fibroblasts treated with FTI. Conditions: once daily 0, 0.5, 1.0, 2.0 μM for three days; p<0.0001. In kind it is cell-based, human. The procedure:
Cell Culture. Cell lines used were the normal human fibroblast line, AG06299, and HGPS fibroblast lines: AG06917, AG11513, and AG11498 (obtained from the NIA Aging Cell Culture Repository, Coriell Institute for Medical Research, Camden, N.J.). Fibroblasts were cultured in minimal essential medium (MEM; Invitrogen/Gibco) supplemented with 15% FBS (HiClone), 2 mM L-glutamine, penicillin (50 U/ml) and streptomycin ([…]). HeLa and HEK-293 cell lines were cultured in DMEM (Invitrogen/Gibco) supplemented with 10% fetal bovine serum and antibiotics.
(§1) FTI Treatment. At the time of transient transfection, HeLa cells were treated with one dose of 0, 0.5, 1.0, or 2.0 μM of the selective FTI lonafarnib [Sarasar, SCH66336, (Schering-Plough)]. HEK-293 cells were treated with one dose of 0, 1, 2, 5, or 10 μM of the selective FTI L-744832 (Biomol). […] These FTIs have the same mechanism of action and can be used interchangeably to inhibit protein farnesylation in vitro. However, only lonafarnib is a clinical candidate. Normal and HGPS fibroblasts were treated with one daily dose of 0, 0.5, 1.0, or 2.0 μM of lonafarnib for 3 days.
GFP Localization and Fluorescence Microscopy. Forty-eight hours following transient transfection, the HeLa and HEK-293 cells were visualized for GFP localization using an LSM510 confocal microscope (Zeiss). […]

Data set [5] relates to HeLa cells transfected with wild-type lamin A-CSIM, progerin-CSIM, progerin-SSIM or progerin-CSIL. In words: Nuclear blebbing and GFP localization in transiently transfected HeLa cells treated with FTI. Conditions: 48 hours. In kind it is cell-based. As for the experimental part:
Transient Transfections. Approximately 25,000 cells were plated per chamber of 4-chamber slides (Lab-Tek, Nalge Nunc International, #154526). After twenty-four hours, HeLa and HEK-293 cell lines were transiently transfected with 0.8 μg of each construct using LIPOFECTAMINE®2000 transfection reagent (Invitrogen) under standard conditions.
as §1
GFP Localization and Fluorescence Microscopy. Forty-eight hours following transient transfection, the HeLa and HEK-293 cells were visualized for GFP localization using an LSM510 confocal microscope (Zeiss). Following three-day treatment with lonafarnib, HGPS fibroblasts were washed two times with phosphate-buffered saline (PBS) (pH 7.2) and fixed for 10 minutes at room temperature with 1% paraformaldehyde in PBS. Following three washes with PBS, the cells were permeabilized for 5 minutes at room temperature with 0.5% Triton X-100 in PBS and blocked with 5% horse serum for 30 minutes at room temperature. Cells were then incubated for one hour at room temperature with the primary antibody diluted in blocking solution, a […] mouse anti-human lamin A/C at 1:10 (mAb3211, Chemicon). Three more washes with PBS were then followed by incubation with the secondary antibody, Alexa 488-conjugated donkey anti-mouse IgG (Molecular Probes), for 45 minutes and three additional PBS washes. Slides were then mounted with mounting medium containing DAPI (Vector Laboratories).
Morphometric Analysis. To examine the overall percentage of blebbed cells in cells with different amounts and lengths of FTI treatment, 200 nuclei were classified as either blebbed, if they contained two or more lobulations, or not blebbed, as previously described (Goldman et al., Proc. Natl. Acad. Sci. USA 101:8963-8968, 2004). These classifications were done by three independent observers, all blinded to the specifics of the cells being examined, followed by averaging three independent data sets. Armitage's trend test (Armitage, Biometrics 11:375-386, 1955) was used to test for a dose-dependent response for each cell type.

A further data set relates to BCR/ABL. Conditions: cell culture and mouse models; cited from earlier work.

SMILES strings stand for the structures. “Also recorded” adds a separate entry of the source.

Regarding `NC(=O)N1CCC(CC(=O)N2CCC([C@H]3c4ncc(Br)cc4CCc4cc(Cl)cc(Br)c43)CC2)CC1` [lonafarnib], the “activity against human tumor xenografts” value in data set [1] was “active”. The tolerability entry in data set [2] is “well tolerated”. Besides, in the data set with protein farnesylation, the “protein farnesylation in vivo” value is reported as “inhibits” and the tolerability entry was “generally well tolerated”. Also, the “proliferation of several human cancer cell lines” value in data set [3] was “inhibit proliferation”. Also, the “nuclear blebbing in HGPS fibroblasts” value in data set [4] is recorded as “significant dose-dependent reduction; also recorded: reversion of the nuclear blebbing”. In data set [5] (0 to 2.0 μM), the “change of nuclear blebbing, wild-type lamin A-CSIM” value is “unchanged; also recorded: does not change significantly” and the “percentage of nuclear blebbing, wild-type lamin A-CSIM” value is reported as “approximately 5%”. The “nuclear blebbing, progerin-CSIM” value in data set [5] (2 μM single dose at transfection) is “approaching normal blebbing percentages; also recorded: almost totally abolishes”. The “localization of progerin, progerin-CSIM” value in data set [5] (2 μM) is listed as “relocalization of progerin into nucleoplasmic aggregates”. For the same compound, the “dose response of nuclear blebbing, progerin-CSIM” value in data set [5] (single dose 0, 0.5, 1.0, 2.0 μM, p<0.0001) is reported as “dramatic dose-dependent response”. Besides, in data set [5] (up to 2 μM), the “nuclear blebbing, progerin-CSIL” value is given as “completely resistant; also recorded: resistant to FTI treatment; also recorded: resistant to inhibition of farnesylation” and the “phenotype, progerin-SSIM” value is recorded as “no difference; also recorded: does not change significantly”. Besides, in the data set on BCR/ABL, the anti-leukemic activity result is given as “demonstrated”.
